# Reference: patent US10383815B2, “Method and compositions for improving selective catabolysis in cells of keratin surfaces” (ELC Management LLC, priority 2012, dated 2019)
# Test system: PER1 gene expression in skin cells
# Assay: PER1 gene expression in skin cells
# Assay type: cell-based
# Description: A specific example includes a botanical extract from Echinacea purpurea sold by Symrise under the brand name Symfinity™ 1298 which is an extract of Echinacea purpurea which is standardized during the extraction process to contain about 3% by weight of the total extract composition of cichoric acid. Echinacea extracts from different sources will vary in cichoric acid content, and as such will yield variable results in induction of PER1 gene expression. […] Moreover, each species of Echinacea will differ in content of phenolic and cichoric acids. Ethanolic extract of the roots of Echinacea purpura will provide more cichoric acid than ethanolic extracts of Echineacea angustifolia or Echinacea pallida. The content of active ingredients in any extract is also very dependent on the method of extraction. For example, it is known that in many cases enzymatic browning during the extraction process will reduce the phenolic acid content of the resulting extract.
smiles,measurement,value
O=C(/C=C/c1ccc(O)c(O)c1)O[C@@H](C(=O)O)[C@@H](O)C(=O)O [caftaric acid],PER1 gene expression,does not increase
